The test system of this data set is CCRIS mutagenicity, Ames/micronucleus/aberration tests. The experiment in a line: CCRIS mutagenicity studies.
The mark [1] stands for this setting: Test System: AMES SALMONELLA TYPHIMURIUM, Strain/Indicator: TA98, Metabolic Activation: NONE, Method: STANDARD PLATE.
The mark [2] stands for this setting: Test System: AMES SALMONELLA TYPHIMURIUM, Strain/Indicator: TA98, Metabolic Activation: RAT LIVER S-9, AROCLOR 1254, Method: STANDARD PLATE.
Where [3] appears, read: Test System: AMES SALMONELLA TYPHIMURIUM, Strain/Indicator: TA100, Metabolic Activation: NONE, Method: STANDARD PLATE.
Setting [4] is: Test System: AMES SALMONELLA TYPHIMURIUM, Strain/Indicator: TA100, Metabolic Activation: RAT LIVER S-9, AROCLOR 1254, Method: STANDARD PLATE.
Where [5] appears, read: Test System: AMES SALMONELLA TYPHIMURIUM, Strain/Indicator: TA1535, Metabolic Activation: NONE, Method: STANDARD PLATE.

Active and inactive are the calls of the source. The rule behind the calls is not given here.

Take `CCCCN(CC)CC`: the mutagenic call is “inactive; negative” (Test System: AMES SALMONELLA TYPHIMURIUM, Strain/Indicator: TA97, Metabolic Activation: HAMSTER, LIVER, S-9, AROCLOR 1254 (10 OR 30%), Method: PREINCUBATION); “inactive; negative” (Test System: AMES SALMONELLA TYPHIMURIUM, Strain/Indicator: TA97, Metabolic Activation: NONE, Method: PREINCUBATION); “inactive; negative” (Test System: AMES SALMONELLA TYPHIMURIUM, Strain/Indicator: TA97, Metabolic Activation: RAT, LIVER, S-9, AROCLOR 1254 (10 OR 30%), Method: PREINCUBATION); “inactive; negative” (Test System: AMES SALMONELLA TYPHIMURIUM, Strain/Indicator: TA98, Metabolic Activation: HAMSTER, LIVER, S-9, AROCLOR 1254 (10 OR 30%), Method: PREINCUBATION); “inactive; negative” (Test System: AMES SALMONELLA TYPHIMURIUM, Strain/Indicator: TA98, Metabolic Activation: NONE, Method: PREINCUBATION); “inactive; negative” (Test System: AMES SALMONELLA TYPHIMURIUM, Strain/Indicator: TA98, Metabolic Activation: RAT, LIVER, S-9, AROCLOR 1254 (10 OR 30%), Method: PREINCUBATION). For the same molecule, the mutagenic call (Test System: AMES SALMONELLA TYPHIMURIUM, Strain/Indicator: TA100, Metabolic Activation: HAMSTER, LIVER, S-9, AROCLOR 1254 (10 OR 30%), Method: PREINCUBATION) is “inactive; negative”; the mutagenic call (Test System: AMES SALMONELLA TYPHIMURIUM, Strain/Indicator: TA100, Metabolic Activation: NONE, Method: PREINCUBATION) was “inactive; negative”; the mutagenic call (Test System: AMES SALMONELLA TYPHIMURIUM, Strain/Indicator: TA100, Metabolic Activation: RAT, LIVER, S-9, AROCLOR 1254 (10 OR 30%), Method: PREINCUBATION) was “inactive; negative”; the mutagenic call (Test System: AMES SALMONELLA TYPHIMURIUM, Strain/Indicator: TA1535, Metabolic Activation: HAMSTER, LIVER, S-9, AROCLOR 1254 (10 OR 30%), Method: PREINCUBATION) was “inactive; negative”; the mutagenic call (Test System: AMES SALMONELLA TYPHIMURIUM, Strain/Indicator: TA1535, Metabolic Activation: NONE, Method: PREINCUBATION) is “inactive; negative”; the mutagenic call (Test System: AMES SALMONELLA TYPHIMURIUM, Strain/Indicator: TA1535, Metabolic Activation: RAT, LIVER, S-9, AROCLOR 1254 (10 OR 30%), Method: PREINCUBATION) is “inactive; negative”.

Turning to `C[Si]1(C)O[Si](C)(C)O[Si](C)(C)O1`, the mutagenic call is, setting by setting: under setting [1], “inactive; negative”; under setting [2], “inactive; negative”; under setting [3], “inactive; negative”; under setting [4], “inactive; negative”; under setting [5], “inactive; negative”; (Test System: AMES SALMONELLA TYPHIMURIUM, Strain/Indicator: TA1535, Metabolic Activation: RAT LIVER S-9, AROCLOR 1254, Method: STANDARD PLATE) “inactive; negative”. Besides, the mutagenic call is, setting by setting: (Test System: AMES SALMONELLA TYPHIMURIUM, Strain/Indicator: TA1537, Metabolic Activation: NONE, Method: STANDARD PLATE) “inactive; negative”; (Test System: AMES SALMONELLA TYPHIMURIUM, Strain/Indicator: TA1537, Metabolic Activation: RAT LIVER S-9, AROCLOR 1254, Method: STANDARD PLATE) “inactive; negative”; (Test System: AMES SALMONELLA TYPHIMURIUM, Strain/Indicator: TA1538, Metabolic Activation: NONE, Method: STANDARD PLATE) “inactive; negative”; (Test System: AMES SALMONELLA TYPHIMURIUM, Strain/Indicator: TA1538, Metabolic Activation: RAT LIVER S-9, AROCLOR 1254, Method: STANDARD PLATE) “inactive; negative”; (Test System: E. COLI, Strain/Indicator: P3078 POLA, Metabolic Activation: NONE, Method: SPOT TEST) “inactive; negative”; (Test System: E. COLI, Strain/Indicator: P3078 POLA, Metabolic Activation: RAT LIVER S-9, AROCLOR 1254, Method: SPOT TEST) “inactive; negative”. Besides, the mutagenic call reads like this: (Test System: E. COLI, Strain/Indicator: W3110, Metabolic Activation: NONE, Method: SPOT TEST) “inactive; negative”; (Test System: E. COLI, Strain/Indicator: W3110, Metabolic Activation: RAT LIVER S-9, AROCLOR 1254, Method: SPOT TEST) “inactive; negative”; (Test System: MOUSE LYMPHOMA, Strain/Indicator: L5178Y (TK+/TK-), Metabolic Activation: NONE, Method: SUSPENSION/PLATE) “inactive; negative”; (Test System: MOUSE LYMPHOMA, Strain/Indicator: L5178Y (TK+/TK-), Metabolic Activation: RAT, LIVER, S-9, Method: SUSPENSION/PLATE) “inactive; negative”.

As to `ClCOCCl`, the mutagenic call (Test System: AMES SALMONELLA TYPHIMURIUM, Strain/Indicator: G46, Metabolic Activation: NONE, Method: STANDARD PLATE) was “active; positive”.

Regarding `Cn1ccnc1[N+](=O)[O-]`, the mutagenic call under setting [3] is “active; positive”.

On to `Cc1cc(C)c(C)c(C)c1`, for which the mutagenic call is, setting by setting: (Test System: AMES SALMONELLA TYPHIMURIUM, Strain/Indicator: TA97A, Metabolic Activation: NONE, Method: STANDARD PLATE) “active; positive”; (Test System: AMES SALMONELLA TYPHIMURIUM, Strain/Indicator: TA97A, Metabolic Activation: RAT LIVER S-9, AROCLOR 1254, Method: STANDARD PLATE) “inactive; negative”; under setting [1], “inactive; negative”; under setting [2], “inactive; negative”; under setting [3], “inactive; negative”; under setting [4], “inactive; negative”. In addition, the mutagenic call (Test System: AMES SALMONELLA TYPHIMURIUM, Strain/Indicator: TA102, Metabolic Activation: NONE, Method: STANDARD PLATE) is “inactive; negative” and the mutagenic call (Test System: AMES SALMONELLA TYPHIMURIUM, Strain/Indicator: TA102, Metabolic Activation: RAT LIVER S-9, AROCLOR 1254, Method: STANDARD PLATE) was “inactive; negative”.

For `O=[N+]([O-])[O-].O=[N+]([O-])[O-].O=[N+]([O-])[O-].[Gd+3]`, the mutagenic call (Test System: UDS HUMAN LYMPHOCYTES, Strain/Indicator: THYMIDINE INCORPORATION, Metabolic Activation: NONE, Method: LIQUID SCINTILLATION COUNTING) is “active; positive”.

For the molecule `c1ccc2c(c1)-c1cccc3c1c-2cc1c2ccccc2ccc31`, the mutagenic call (Test System: HUMAN H1A1V2 CELLS, Strain/Indicator: TK LOCUS, Metabolic Activation: NONE, Method: SUSPENSION/PLATE) is “inactive; negative”.

`CC(=O)OCC(COC(C)=O)OC(C)=O`: the mutagenic call is, setting by setting: (Test System: Ames Salmonella typhimurium, Strain/Indicator: TA98, Metabolic Activation: None, Method: Preincubation) “inactive; negative”; (Test System: Ames Salmonella typhimurium, Strain/Indicator: TA98, Metabolic Activation: Rat, Liver, S9, Sodium phenobarbital and 5,6-benzoflavone, Method: Preincubation) “inactive; negative”; (Test System: Ames Salmonella typhimurium, Strain/Indicator: TA100, Metabolic Activation: None, Method: Preincubation) “inactive; negative”; (Test System: Ames Salmonella typhimurium, Strain/Indicator: TA100, Metabolic Activation: Rat, Liver, S9, Sodium phenobarbital and 5,6-benzoflavone, Method: Preincubation) “inactive; negative”; (Test System: Ames Salmonella typhimurium, Strain/Indicator: TA1535, Metabolic Activation: None, Method: Preincubation) “inactive; negative”; (Test System: Ames Salmonella typhimurium, Strain/Indicator: TA1535, Metabolic Activation: Rat, Liver, S9, Sodium phenobarbital and 5,6-benzoflavone, Method: Preincubation) “inactive; negative”. Further, the mutagenic call by setting is: (Test System: Ames Salmonella typhimurium, Strain/Indicator: TA1537, Metabolic Activation: None, Method: Preincubation) “inactive; negative”; (Test System: Ames Salmonella typhimurium, Strain/Indicator: TA1537, Metabolic Activation: Rat, Liver, S9, Sodium phenobarbital and 5,6-benzoflavone, Method: Preincubation) “inactive; negative”; (Test System: E. coli, Strain/Indicator: WP2uvrA/pKM101, Metabolic Activation: None, Method: Preincubation) “inactive; negative”; (Test System: E. coli, Strain/Indicator: WP2uvrA/pKM101, Metabolic Activation: Rat, Liver, S9, Sodium phenobarbital and 5,6-benzoflavone, Method: Preincubation) “inactive; negative”.

As to `N=NCO`, the mutagenic call under setting [5] was “active; positive”; the mutagenic call (Test System: E. COLI, Strain/Indicator: WP2, Metabolic Activation: NONE, Method: STANDARD PLATE) was “active; positive”; the mutagenic call (Test System: E. COLI, Strain/Indicator: WP2 UVRA, Metabolic Activation: NONE, Method: STANDARD PLATE) is “active; positive”.

(Values after PubChem BioAssay AID1259407 (Chemical Carcinogenesis Research Information System (CCRIS), 2018).)
